System: virus-stock de souche HSV1
Assay: Virucidal properties on HSV1 stock virus (infectious titre after incubation at 37°C)
Assay type: cell-based
Procedure: On a apprécié les propriétés virucides du 3,5-di-t-butyl-4-hydroxybenzoate d'octaoxyéthylèneglycol de formule : [drawing 23] dénommé ci-après par commodité AVF1, sur un échantillon de "virus-stock" de souche HSV1. Le titre infectieux (TV) d'échantillons traités avec AVF1 a été comparé au titre infectieux (TV0) d'un échantillon témoin afin de calculer la valeur log (TV/TV0).
Le protocole a consisté à incuber à 37°C l'échantillon de virus HSV1 stock avec le composé AVF1, en faisant varier la concentration en AVF1 et le temps d'incubation. TV0 a été déterminé à partir d'une composition constituée de 0,5 ml de milieu de culture MEM et 0,5 ml de virus-stock et TV a été déterminée à partir d'une composition constituée de 0,5 ml de AVF1 à diverses concentrations dans ledit milieu MEM et de 0,5 ml de virus-stock. Les valeurs TV0 et TV obtenus sont des multiples de la DI50/ml.
• Concentrations en AVF1 : 0,03; 0,06; 0,12; 0,25; 0,5; 1,25; 2,5; 5 mg/ml. • Temps d'incubation : 60 et 120 minutes. • Résultats : • Titre du témoin-virus : […] DI50/ml. • AVF1 < 2,5 mg/ml : TV. • AVF1 ≥ 2,5 mg/ml : 0. • Conclusions : AVF1 est virucide en 60 minutes à la concentration 2,5 mg/ml.
• Concentrations en AVF1 : 1 et 5 mg/ml. • Temps d'incubation : 5, 15, 30, et 60 minutes. • Résultats : • Titre du témoin-virus : 2 x 10^6 DI50/ml • AVF1 = 5 mg/ml : virucide en 5 minutes, titre = 0. • AVF1 = 1 mg/ml : le titre est réduit de 1,5 log 10 en 60 minutes.

Structure (SMILES): CC(C)(C)c1cc(C(=O)OCCOCCOCCOCCOCCOCCOCCOCCO)cc(C(C)(C)C)c1O [AVF1, 3,5-di-t-butyl-4-hydroxybenzoate d'octaoxyéthylèneglycol]
- concentration virucide en 60 minutes (Essai 1, 60 minutes, 37°C): 2,5 mg/ml
- Titre infectieux (TV) (Essai 1, AVF1 ≥ 2,5 mg/ml, incubation 60 and 120 minutes, 37°C): 0 DI50/ml
- réduction du titre (Essai 2, AVF1 = 1 mg/ml, 60 minutes): 1,5 log 10
- titre (Essai 2, AVF1 = 5 mg/ml, virucidal in 5 minutes): 0 DI50/ml
